Literature values in patent publication US6676926B2, “Radiopharmaceuticals for diagnosing Alzheimer's disease” (Schering Aktiengesellschaft, priority 2000, dated 2004).

Legend:
synthetic-amyloid = settings: in vitro
[1] = normal mice

Q: For `O=C(O)c1cc(/N=N/c2ccc(-c3ccc(/N=N/c4ccc(O)c(C(=O)O)c4)cc3)cc2)ccc1O` [Chrysamine G], which “binding to synthetic amyloid” value (synthetic-amyloid) is on record?
A: The value was “binds synthetic-amyloid well”.

Q: And the blood-brain barrier passage [1]?
A: Its blood-brain barrier passage is “crosses the blood-brain barrier”.
